Laboratory results published in US20090163474A1, “FXR Agonists for the Treatment of Nonalcoholic Fatty Liver and Cholesterol Gallstone Diseases” (Wyeth, priority 2007, published 2009).
Like-named read-outs stand apart in the source and are kept apart here.

Columns and labels:
[1] = tested on: mice with preformed gallstones; test: Gallbladder bile lipid composition, preformed gallstones; type: in vivo
Method: (§1) Disrupted cholesterol, phospholipid, and bile salt homeostasis contributes to the formation of gallstones. Gallbladder bile lipid composition was quantitated from mice treated as follows. A group of mice (CHOW) was fed a standard chow diet. Another group of mice was fed a Paigen diet and administered vehicle (Paigen/Vehicle) or 30 mg/kg Compound A (Paigen/Compound A) orally once a day for 4 weeks. To preform gallstones, mice were fed initially a Paigen diet for 4 weeks and subsequently fed a standard chow diet and administered vehicle (Preformed/Vehicle) or 30 mg/kg Compound A (Preformed/Compound A) orally once a day for 4 weeks. […] Data are presented as the mean±SE.

[2] = tested on: C57BL/6 mice fed a Paigen diet; test: Paigen diet fed mice: serum, liver gene expression and liver histology; type: in vivo; conditions: 30 mg/kg orally once a day for 4 weeks
Method: Male C57BL/6 mice were fed a standard chow diet or a Paigen diet (TestDiet 32350 containing 7.5% Cocoa Butter, 1.25% cholesterol, and 0.5% cholic acid). Paigen diet fed mice were administered vehicle or 30 mg/kg FXR agonist, Compound A (isopropyl 3-(3,4-difluorobenzoyl)-1,1-dimethyl-1,2,3,6-tetrahydroazepino[4,5-b]indole-5-carboxylate) orally once a day for 4 weeks. Three hours after the final treatment, mice were euthanized and blood and liver were collected for analyses.
Real-time RT PCR analysis of liver RNA was performed. FIGS. 3A, 3B, and 3C show the expression levels of vascular cell adhesion molecule 1 (VCAM-1), intercellular adhesion molecule-1 (ICAM-1), and tumor necrosis factor α (TNFα). Expression levels were normalized to GAPDH, and the mean level of expression of each gene in mice fed a standard chow diet was defined as 1.0. 6 mice were tested in each group. Data are presented as the mean±SE.
Male C57BL/6 mice were fed a chow diet or a Paigen diet. Paigen fed mice were administered vehicle or 30 mg/kg Compound A orally once a day for 4 weeks. Three hours after the final treatment, mice were euthanized, and histological analysis of livers was performed. Frozen liver sections (5 μm) were prepared and stained with Oil Red O, hematoxylin and eosin (H&E), and Masson's trichrome (Trichrome).
Male C57BL/6 mice were fed a chow diet or a Paigen diet. Paigen fed mice were administered vehicle or 30 mg/kg Compound A orally once a day for 4 weeks. Three hours after the final treatment, mice were euthanized, and real-time RT PCR analysis of liver RNA was performed.

[3] = tested on: FXR deficient (FXRKO) mice fed a MCD diet; test: MCD diet, FXR deficient mice (WT vs FXRKO study); type: in vivo; conditions: 30 mg/kg orally once a day for 4 weeks
Method: Mice were fed a standard chow diet or a MCD diet and treated with either vehicle or 30 mg/kg Compound A orally once a day for 4 weeks.

[4] = tested on: C57Bl/6 mice fed a MCD diet (preformed NASH); test: Preformed NASH in MCD diet fed mice; type: in vivo; conditions: MCD diet 2 weeks
Description: C57Bl/6 mice were fed a MCD diet for 2 weeks to induce the development of NASH to study the effect of Compound A treatment on preformed NASH. These mice were then maintained on the MCD diet while being treated with vehicle or Compound A. Mice were euthanized 2 weeks (2 w), and 4 weeks (4 w) after the beginning of treatment with vehicle or Compound A for analysis. As controls, mice were fed a chow diet or fed a MCD diet for 2 weeks, and then euthanized for analysis.

[5] = tested on: Hep3B cells; test: IL-6 induced CRP secretion in Hep3B cells; type: cell-based, Human; conditions: for IC50: Homo sapiens, Hep3B, read-out: IC50 of inhibitory effect on CRP secretion
Method: Human hepatoma cells, Hep3B secrete the acute phase protein, C-reactive protein (CRP) upon IL-6 treatment. Cells were cotreated with Compound A to determine if Compound A could decrease IL-6 induced CRP secretion.
FIGS. 24A, 24B, and 24C show the levels of CRP secretion (pg/ml) in Hep3B cells after stimulation with IL-6 (10 ng/ml), or IL-6 (50 ng/ml), or IL-6 (10 ng/ml & IL-1β 20 ng/ml), and treated with vehicle (DMSO) or Compound A (5 μM). […] (*P<0.001, Hep3B/DMSO vs. Hep3B/Compound A).

[6] = tested on: mice fed a Paigen diet; test: Gallbladder bile lipid composition, Paigen diet with treatment; type: in vivo
Method: as §1

[7] = Preformed/Compound A vs Preformed/Vehicle
[8] = Preformed/Compound A, Paigen diet 4 weeks, then chow and 30 mg/kg orally once a day for 4 weeks, mean±SE
[9] = RT PCR, normalized to GAPDH, p<0.0001
[10] = then 2-week (P<0.001) and 4-week (P<0.01) treatment on MCD diet
[11] = then 2-week and 4-week treatment on MCD diet, P<0.01
[12] = Paigen/Compound A vs Paigen/Vehicle
[13] = Paigen/Compound A, 30 mg/kg orally once a day for 4 weeks, mean±SE

SMILES: CC(C)OC(=O)C1=CN(C(=O)c2ccc(F)c(F)c2)CC(C)(C)c2c1[nH]c1ccccc21 [Compound A, isopropyl 3-(3,4-difluorobenzoyl)-1,1-dimethyl-1,2,3,6-tetrahydroazepino[4,5-b]indole-5-carboxylate]
- bile cholesterol level vs vehicle [1, 7]: higher
- bile phospholipid level vs vehicle [1, 7]: higher
- bile salt level vs vehicle [1, 7]: Lower
- BS (bile salt) in gallbladder bile [1, 8]: 120.06 ± 14.28 mM
- CE (cholesterol) in gallbladder bile [1, 8]: 7.54 ± 0.86 mM
- PL (phospholipids) in gallbladder bile [1, 8]: 27.54 ± 2.14 mM
- bile salt/phospholipid ratio vs vehicle ([1]; mice with preformed gallstones): significantly decreased
- Paigen diet induced liver damage (histological analyses) [2]: attenuated Paigen diet induced liver damage
- intracellular vacuoles characteristic of lipid droplets in liver (H&E and Trichrome) [2]: reduced the number and severity of the vacuoles
- liver BSEP expression level, increase ([2]; Paigen diet): 2.41 fold
- liver MDR2 expression level, increase ([2]; Paigen diet): 1.4 fold
- liver SHP expression level, increase ([2]; Paigen diet): 4.85 fold
- liver ICAM-1 expression level (Paigen diet induction) [2, 9]: significantly inhibited
- liver TNFα expression level (Paigen diet induction) [2, 9]: significantly inhibited
- liver VCAM-1 expression level (Paigen diet induction) [2, 9]: significantly inhibited
- inflammatory cholangitis with portal inflammation in liver ([2]; histology): significantly more severe in the livers of vehicle treated compared to Compound A treated mice
- serum alanine aminotransferase (ALT) activity level ([2]; mean±SE, vehicle 292.1±33.6 U/L, p<0.0001): 98.1±22.5 U/L
- serum level of MCP-1 vs vehicle ([2]; p<0.0001): significantly reduced
- neutral lipid accumulation in the liver (Oil Red O staining) ([2]; vs vehicle): reduction in neutral lipid accumulation
- liver FAS expression, further induction ([2]; vs vehicle treated Paigen diet mice, p<0.0001): 2.4 fold
- effect on liver VCAM-1 levels, FXR dependence [3]: mediated by FXR
- hepatic protective effect (serum ALT), FXR dependence [3]: mediated by FXR
- reduction of liver Col1a2, FXR dependence [3]: mediated by FXR
- reduction of liver TIMP-1, FXR dependence [3]: mediated by FXR
- liver Col1a2 gene expression level vs vehicle [4, 10]: significantly lowered
- liver MMP-2 gene expression level vs vehicle [4, 10]: significantly lowered
- liver TIMP-1 gene expression level vs vehicle [4, 10]: significantly lowered
- liver MCP-1 gene expression level vs vehicle [4, 11]: significantly lowered
- liver VCAM-1 gene expression level vs vehicle [4, 11]: significantly lowered
- serum level of ALT vs vehicle [4, 11]: significantly reduced
- serum level of AST vs vehicle [4, 11]: significantly reduced
- IL-6 induced CRP secretion ([5]; Compound A 5 μM, IL-6 10 ng/ml, IL-6 50 ng/ml, or IL-6 10 ng/ml & IL-1β 20 ng/ml, P<0.001 vs DMSO): inhibited
- IC50 ([5]; 10 ng/ml of IL-6): 224 nM
- IC50 ([5]; 50 ng/ml IL-6): 220 nM
- bile cholesterol level increase induced by the Paigen diet, vs vehicle [6, 12]: attenuated the increases
- bile phospholipid level increase induced by the Paigen diet, vs vehicle [6, 12]: attenuated the increases
- BS (bile salt) in gallbladder bile [6, 13]: 110.42 ± 24.79 mM
- CE (cholesterol) in gallbladder bile [6, 13]: 7.70 ± 0.28 mM
- PL (phospholipids) in gallbladder bile [6, 13]: 20.19 ± 1.00 mM
